This note sets out measurements from ChEMBL document CHEMBL4665699, “Cytotoxic Diterpenoids from Caryopteris aureoglandulosa” (J Nat Prod, 2020).

What all share (format): functional, cell-based
For one assay, the system named is NCI-H460. The assay is described as follows: Cytotoxicity against human NCI-H460 cells assessed as reduction in cell viability after 48 hrs by CCK8 assay. The conditions noted are these: NCI-H460, 48 h. A general note: Tetrazolium assays rely on reduction of a dye to a coloured formazan, in cell work by metabolically active cells.
A further assay relates to A549. The assay is described as follows: Cytotoxicity against human A549 cells assessed as reduction in cell viability after 48 hrs by CCK8 assay. The note with it: A549, 48 h.
Assay [1] can be described thus: Cytotoxicity against human 95-D cells assessed as reduction in cell viability after 48 hrs by CCK8 assay.
For the next assay, the system named is NCI-H1650. The assay is described as follows: Cytotoxicity against human NCI-H1650 cells assessed as reduction in cell viability after 48 hrs by CCK8 assay. The conditions noted are these: NCI-H1650, 48 h.
A further assay relates to PC-9. In words: Cytotoxicity against human PC-9 cells assessed as reduction in cell viability after 48 hrs by CCK8 assay. The note with it: PC-9, 48 h.

A value given as a limit tells only on which side of the number the result lay.

For orientation: IC50 means the concentration needed to halve the response being measured. `Cc1cc2c(o1)C(=O)c1cc3c(c(O)c1C2=O)C(=O)CCCC3(C)C`: the IC50 in the assay with NCI-H460 is > 10 µM; in the assay with A549, 10.4 µM; in assay [1], > 10 µM; in the assay with NCI-H1650, 5.4 µM; with PC-9, 8.2 µM.
With `C[C@@]12CC[C@@H](OC1=O)c1c2cc(O)c2c1C(=O)c1oc(CO)cc1C2=O`, the IC50 in the assay on NCI-H460 is > 10 µM; with A549, 4.8 µM; in assay [1], 3.9 µM; in the assay with NCI-H1650, 1.6 µM; in the assay on PC-9 it was > 10 µM.
Take `O=c1[nH]cc(F)c(=O)[nH]1` [FLUOROURACIL]: the IC50 in the assay with NCI-H460 is 9.9 µM; in the assay on A549, > 10 µM; in assay [1] it was > 10 µM; in the assay with NCI-H1650, > 10 µM; in the assay on PC-9, > 10 µM.
